Results on eight compounds are retold here after patent publication US20210290784A1, “POSITRON EMISSION TOMOGRAPHY (PET) RADIOTRACERS FOR IMAGING MACROPHAGE COLONY-STIMULATING FACTOR 1 RECEPTOR (CSF1R) IN NEUROINFLAMMATION” (The Johns Hopkins University, priority 2018, published 2021).

A value given as a limit tells only on which side of the number the result lay.

One test has as its target T1, CSF1R Human RTK Kinase (Homo sapiens, UniProt P07333).
T1 construct: purchased Eurofins
As to the kind of experiment: CSF1R Human RTK Kinase, Enzymatic Radiometric Assay, Eurofins. The test is classed as biochemical. Conditions: commercial assay.

Test [1] has as its target CSF1R (Homo sapiens, UniProt P07333). As to the kind of experiment: CSF1R competition binding assay, KinomeScan, DiscoverX. Set-up: purchased DiscoverX. Conditions: commercial assay.
The next test concerns the target T2, TSPO (Rattus norvegicus, UniProt P16257).
T2 construct: host or cells: LPS-treated rats (cited study)
The following applies: LPS-treated rats; cited from earlier work.

In test [2] the target is T3, CSF1R (Mus musculus, UniProt P09581).
T3 sequence (P09581 20-977): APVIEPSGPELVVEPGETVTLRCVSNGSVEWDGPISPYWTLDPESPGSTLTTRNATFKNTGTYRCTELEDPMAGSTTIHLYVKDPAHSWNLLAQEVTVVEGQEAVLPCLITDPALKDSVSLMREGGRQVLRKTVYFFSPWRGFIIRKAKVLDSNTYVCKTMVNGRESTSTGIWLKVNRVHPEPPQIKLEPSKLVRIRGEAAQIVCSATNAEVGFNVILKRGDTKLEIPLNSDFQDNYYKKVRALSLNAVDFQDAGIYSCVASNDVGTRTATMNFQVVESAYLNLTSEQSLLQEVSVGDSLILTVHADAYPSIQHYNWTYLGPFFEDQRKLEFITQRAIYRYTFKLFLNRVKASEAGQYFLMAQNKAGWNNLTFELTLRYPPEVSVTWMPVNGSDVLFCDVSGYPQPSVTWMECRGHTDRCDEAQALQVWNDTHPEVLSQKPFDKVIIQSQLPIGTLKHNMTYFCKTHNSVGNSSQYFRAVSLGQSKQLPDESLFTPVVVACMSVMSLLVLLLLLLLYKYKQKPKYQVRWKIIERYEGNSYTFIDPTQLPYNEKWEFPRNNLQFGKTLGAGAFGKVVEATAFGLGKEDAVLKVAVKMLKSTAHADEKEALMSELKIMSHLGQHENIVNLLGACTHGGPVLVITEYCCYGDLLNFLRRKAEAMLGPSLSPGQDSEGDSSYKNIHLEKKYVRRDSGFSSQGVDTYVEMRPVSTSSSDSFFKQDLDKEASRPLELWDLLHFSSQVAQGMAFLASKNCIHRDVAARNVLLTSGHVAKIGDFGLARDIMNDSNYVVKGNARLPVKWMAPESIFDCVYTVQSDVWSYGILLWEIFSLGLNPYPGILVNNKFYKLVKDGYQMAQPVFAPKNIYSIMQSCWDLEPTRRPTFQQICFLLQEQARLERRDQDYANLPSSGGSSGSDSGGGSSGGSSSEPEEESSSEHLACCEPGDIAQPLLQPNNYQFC
Conditions: i.p.-LPS mice, blocker 1 mg/kg i.p., 5 min before radiotracer.

The next test has as its system microglia. The following applies: chronic treatment of mice; cited from earlier work.

CSF1R (Homo sapiens, UniProt P07333), sequence (P07333 20-972, species assumed): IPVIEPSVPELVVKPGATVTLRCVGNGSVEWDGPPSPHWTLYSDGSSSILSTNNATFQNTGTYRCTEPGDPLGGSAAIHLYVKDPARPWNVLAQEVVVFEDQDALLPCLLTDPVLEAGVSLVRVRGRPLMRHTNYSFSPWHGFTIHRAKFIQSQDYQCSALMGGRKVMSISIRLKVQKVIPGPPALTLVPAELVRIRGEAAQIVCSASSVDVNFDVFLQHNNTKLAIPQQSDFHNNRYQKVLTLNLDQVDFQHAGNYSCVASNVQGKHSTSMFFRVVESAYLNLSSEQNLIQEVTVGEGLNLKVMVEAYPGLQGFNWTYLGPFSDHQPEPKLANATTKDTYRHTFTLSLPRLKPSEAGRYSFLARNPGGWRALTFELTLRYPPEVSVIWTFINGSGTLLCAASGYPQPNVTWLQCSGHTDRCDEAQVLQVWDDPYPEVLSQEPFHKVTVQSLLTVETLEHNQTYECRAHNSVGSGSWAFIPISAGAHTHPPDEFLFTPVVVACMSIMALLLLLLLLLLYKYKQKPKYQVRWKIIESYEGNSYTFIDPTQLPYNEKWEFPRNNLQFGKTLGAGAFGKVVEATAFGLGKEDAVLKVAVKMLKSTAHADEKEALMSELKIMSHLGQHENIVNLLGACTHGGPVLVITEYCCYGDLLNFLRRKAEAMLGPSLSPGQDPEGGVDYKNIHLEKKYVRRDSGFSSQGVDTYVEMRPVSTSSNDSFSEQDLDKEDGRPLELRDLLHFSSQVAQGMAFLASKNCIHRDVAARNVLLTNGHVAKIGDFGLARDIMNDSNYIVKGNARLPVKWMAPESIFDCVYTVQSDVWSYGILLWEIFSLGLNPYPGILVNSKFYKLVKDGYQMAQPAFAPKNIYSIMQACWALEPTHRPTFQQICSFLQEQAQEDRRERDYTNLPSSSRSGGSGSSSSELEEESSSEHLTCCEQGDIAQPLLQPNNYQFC
T1 sequence (P07333 20-972): as the sequence (P07333 20-972, species assumed) above

In turn, `CC1CCN(c2cc(N3CCN(CCF)CC3)ccc2NC(=O)c2cc(C#N)c[nH]2)CC1` [1l JHU11764, 4-Cyano-N-(4-(4-(2-fluoroethyl)piperazin-1-yl)-2-(4-methylpiperidin-1-yl)phenyl)-1H-pyrrole-2-carboxamide] gave an IC50 against CSF1R Human RTK Kinase of 3.14 nM.

Take `CN1CCN(c2ccc(NC(=O)c3coc(C#N)c3)c(N3CCCCC3)c2)CC1` [1h JHU11766, 5-Cyano-N-(4-(4-methylpiperazin-1-yl)-2-(piperidin-1-yl)phenyl)furan-3-carboxamide]: on CSF1R [1], the Kd was above 1000 nM.

On CSF1R [1], `CN1CCN(c2ccc(NC(=O)c3cccc(F)n3)c(N3CCCCC3)c2)CC1` [1i JHU11767, 6-Fluoro-N-(4-(4-methylpiperazin-1-yl)-2-(piperidin-1-yl)phenyl)picolinamide] yielded a Kd of 30 nM. This counts as double-digit nanomolar.

As for `CCC(C)N([11CH3])C(=O)c1cc2ccccc2c(-c2ccccc2Cl)n1` (stereo not drawn) [[^11C]PK11195], the BP value on TSPO is 0.47.

Consider `N#Cc1ccc(C(=O)Nc2ccc(N3CCN(CCF)CC3)cc2N2CCCCC2)o1` [1k JHU11763, 5-Cyano-N-(4-(4-(2-fluoroethyl)piperazin-1-yl)-2-(piperidin-1-yl)phenyl)furan-2-carboxamide], for which half-maximal inhibition at CSF1R Human RTK Kinase (IC50) required 12.9 nM. Moreover, at CSF1R [1], binding was put at a Kd of 32 nM.

For `CN1CCN(c2ccc(NC(=O)c3cc(C#N)co3)c(N3CCCCC3)c2)CC1` [1g JHU11765, 4-Cyano-N-(4-(4-methylpiperazin-1-yl)-2-(piperidin-1-yl)phenyl)furan-2-carboxamide], the Kd at CSF1R [1] is above 1000 nM.

In the case of `CN1CCN(c2ccc(NC(=O)c3ccc(C#N)o3)c(N3CCCCC3)c2)CC1` [1a JHU11744, 5-Cyano-N-(4-(4-methylpiperazin-1-yl)-2-(piperidin-1-yl)phenyl)furan-2-carboxamide], the “blocking of [11C]CPPC SUVR uptake by CSF1R inhibitor” value at CSF1R [2] is listed as “significantly decreased the uptake to the control level”.

For the compound `FC(F)(F)c1ccc(CNc2ccc(Cc3c[nH]c4ncc(Cl)cc34)cn2)cn1` [PLX3397, pexidartinib], in the test with microglia, the depletion of microglia is given as 90%.
